From patent US8962637B2, “Bicyclic compounds and their uses as dual c-SRC/JAK inhibitors” (Debiopharm S.A., priority 2010, dated 2015) come the findings set out here.

One may read the EC50 as the concentration at which the effect is half-maximal. What is called Vd is the apparent volume that relates the amount in the body to the concentration in plasma or blood. Read a low Vd as confinement near the circulation.

The test system of one series is A549 cells. Kind of series: Cell viability assay (XTT assay), A549. It is filed as cell-based. To be noted: Homo sapiens, 72 hrs. How it is done: Next day compounds were added to cells and incubated for 72 hrs. Compound treatment was done in triplicates. After 72 hrs cell culture media was aspirated from the wells and XTT working solution was added and plates were incubated for 2-5 hrs. […] EC50 values were calculated using Graphpad Prism. Tumor cell lines used in the examples of the present invention were procured from ATCC. Description of the cell lines is included in the following table: […]

A further series deals with A431 cancer cell line. As to the kind of experiment: Inhibition of cell growth in A431. In kind it is cell-based. To be noted: Homo sapiens, A-431.
In a further series the test system is pStat3. Kind of series: In-Cell-Western blot assay for pStat3 (ICW) in A431 cells. It is filed as cell-based. To be noted: Homo sapiens, A-431, 2 hrs, read-out: pSTAT3 inhibition. An outline of the steps: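 Serum-starved (overnight) A431 cells treated with compound for 2 hrs, then fixed, permeabilized and probed with phospho-Stat3 antibody plus europium-labelled secondary. Europium signal normalized to Hoechst for cell number; IC50 calculated from normalized values.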

The subject of a further series is A549 tumor cells. As to the kind of experiment: A549 xenograft model. It is filed as in vivo. As for the experimental part:
Sub-cutaneous (SC) injection of 5×10^6 A549 tumor cells on the left flank of 48 female athymic nude mice. Randomization of mice 14 days after tumor cell injection into 6 groups of 8 mice each with a mean tumor volume of 134±5 mm3.
Formulation: 20% HPC, 2% ethanol solution in PBS for the compounds No. 45, 117 and 179.
• Normal saline for Erlotinib® Dosing route: Oral for the compounds No. 45, 117 and 179, and Erlotinib® Dose Volume: 10 mL/Kg body weight Dosing schedule: Once daily for 14 consecutive days (Q1Dx14) Dosage: • Group1. Vehicle control • Group2. Erlotinib®-100 MPK • Group3. Compound No. 45—10 MPK • Group4. Compound No. 45—30 MPK • Group5. Compound No. 45—100 MPK • Group6. Compound No. 117—30 MPK • Group7. Compound No. 117—100 MPK • Group8. Compound No. 179—10 MPK • Group9. […] Plasma collected for drug concentration estimation and whole blood was collected to isolate PBMCs (peripheral blood monocytes) to determine pStat3 inhibition by flow cytometry as PD readout. Tumors were snap frozen in liquid nitrogen and stored at −80° C. to estimate pStat3 by flow cytometry as PD readout EXPT. 2
SC injection of 5×10^6 A549 tumor cells on the left flank of 24 female athymic nude mice. Randomization of mice 14 days after tumor cell injection into 3 groups of 8 mice each with a mean tumor volume of 75±7 mm3.
Formulation: 20% HPC, 2% ethanol solution in PBS for the compound No. 45
• Normal saline for Erlotinib® Dosing route: Oral for compound No. 45 and Erlotinib® Dose Volume: 10 mL/Kg body weight Dosing schedule: Once daily for 14 consecutive days (Q1Dx14) Dosage: • Group1. Vehicle control • Group2. Compound No. 45—150 MPK • Group3. […] Plasma collected for drug concentration estimation and whole blood was collected to isolate PBMCs to determine pStat3 inhibition by flow cytometry as PD readout. Tumors were snap frozen in liquid nitrogen and stored at −80° C. to estimate pStat3 by flow cytometry as PD readout Results: […]

Series [1] can be described thus: MTD / tolerance in athymic mice. The note with it: once-daily 14 days treatment in athymic mice.
The next series can be described thus: Volume distribution. To be noted: in vivo. From the text: Table 8 provides some volume distribution values of the compounds of the present invention.

Consider `Cc1ccc(NC(=O)c2cccc(C(F)(F)F)c2)cc1N1CCc2nc(Nc3ccc(C(=O)NC4CC4)nc3)ncc2C1` [Compound 117, 5-{6-[2-Methyl-5-(3-trifluoromethyl-benzoylamino)-phenyl]-5,6,7,8-tetrahydro-pyrido[4,3-d]pyrimidin-2-ylamino}-pyridine-2-carboxylic acid cyclopropylamide], for which the EC50 in the series with A549 cells came out at 25 nM; in the series on A431 cancer cell line, 330 nM. Besides, the IC50 in the series with pStat3 came to 340 nM. Besides, in the series with A549 tumor cells (Efficacy - A549, at 100 MPK), the TGI turned out to be 56% at.
`CNC(=O)c1ccc(Nc2ncc3c(n2)CCN(c2cc(NC(=O)c4cc(C(F)(F)F)ccn4)ccc2Cl)C3)cc1` [Compound 179, 4-Trifluoromethyl-pyridine-2-carboxylic acid {4-chloro-3-[2-(4-methylcarbamoyl-phenylamino)-7,8-dihydro-5H-pyrido[4,3-d]pyrimidin-6-yl]-phenyl}-amide]: in the series on pStat3, the IC50 was 280 nM. In addition, in the series with A549 tumor cells (Efficacy - A549, at 30 MPK), the TGI came to 68% at.
`Cc1ccc(NC(=O)c2cccc(C(F)(F)F)c2)cc1N1CCc2nc(Nc3ccc(N4CCN(C)CC4)cc3)ncc2C1=O` [Compound 45, N-(4-Methyl-3-{2-[4-(4-methyl-piperazin-1-yl)-phenylamino]-5-oxo-7,8-dihydro-5H-pyrido[4,3-d]pyrimidin-6-yl}-phenyl)-3-trifluoromethyl-benzamide]: the EC50 in the series on A549 cells worked out at 1070 nM; in the series with A431 cancer cell line, 1400 nM. For the same compound, the “toxicity effects on major organs” value in series [1] was “does not cause pronounced toxicity effects on major organs”. In “Volume distribution”, this compound yielded a Vd of 5.89 L/kg. In the series on pStat3, the IC50 was 220 nM. Further, the “% TGI (Tumor Growth Inhibition)” value in the series on A549 tumor cells (A549 Xenograft model, 10 MPK) worked out at 28.90%; in the series on A549 tumor cells (A549 Xenograft model, 30 MPK), 55.62%; in the series on A549 tumor cells (A549 Xenograft model, 100 MPK) it was 63.86%; with A549 tumor cells (A549 Xenograft model, 150 MPK) it was 53.74%. Moreover, the TGI with A549 tumor cells (A549 Xenograft model, 150 MPK) is given as 54; in the series with A549 tumor cells (Efficacy - A549, at 100 MPK) it was 64% at. In the series with A549 tumor cells (A549 xenograft model, 100 MPK (Q1Dx14)), this compound yielded a tumor growth inhibition of 64%. The compound related toxicity result in the series with A549 tumor cells (up to 150 MPK during A549 efficacy study) is on record as “No major effects of compound related toxicity”.
